Test results reported in patent US4404209A, “Analgesic mixture of nalbuphine and sulindac” (E. I. Du Pont de Nemours and Company, priority 1982, dated 1983).
Where two headings read alike, the source gives them in different places.

Test system: phenyl-p-benzoquinone induced writhing in mice
Details: oral; for % mice blocked: 40 min
Protocol: The phenyl-p-benzoquinone induced writhing test in mice [H. Blumberg et al., Proc. Soc. […] The method simply consists of reading the % ED50 DOSE for each dose ratio on the best fit regression analysis curve from the mouse isobologram, multiplying each component by its effective species dose, and then forming the ratio of the amount of nalbuphine to sulindac. […] [E. W. Pelikan, The Pharmacologist, 1, 73 (1959).]
The mixture is sonicated at 150 watts for 1-2 minutes with an ultrasound system, then shaken for two hours at 280 oscillations/minute with 15-20 gm of glass beads. The resultant suspension contains 16 mg/ml of sulindac; all dosing suspensions are prepared by dilution of the stock suspension with the Methocel®/Tween 80® vehicle; the vehicle control is Methocel®/Tween 80®. All suspensions are prepared fresh daily.
Each mouse is used only once, then discarded.
In order to study the interaction between nalbuphine and sulindac, 5 precise dosage ratios of nalbuphine hydrochloride and sulindac are selected.

| Compound | % mice blocked (nalbuphine HCl 5.45 mg/kg, sulindac 0) [%] | % mice blocked (nalbuphine HCl 10.9 mg/kg, sulindac 0) [%] | % mice blocked (nalbuphine HCl 21.8 mg/kg, sulindac 0) [%] | % mice blocked (nalbuphine HCl 43.6 mg/kg, sulindac 0) [%] | % mice blocked (nalbuphine HCl 87.2 mg/kg, sulindac 0) [%] | ED50 at 40 min, nalbuphine HCl (95% confidence limits) (mouse, nalbuphine HCl dose, alone or as component of the fixed-ratio combination) [mg/kg] | % mice blocked (nalbuphine HCl 0, sulindac 4.75 mg/kg) [%] | % mice blocked (nalbuphine HCl 0, sulindac 9.5 mg/kg) [%] | % mice blocked (nalbuphine HCl 0, sulindac 19.0 mg/kg) [%] | % mice blocked (nalbuphine HCl 0, sulindac 38.0 mg/kg) [%] | ED50 at 40 min, sulindac (95% confidence limits) (mouse, sulindac dose, alone or as component of the fixed-ratio combination) [mg/kg] |
| --- | --- | --- | --- | --- | --- | --- | --- | --- | --- | --- | --- |
| Oc1ccc2c3c1O[C@H]1[C@@H](O)CC[C@@]4(O)[C@@H](C2)N(CC2CCC2)CC[C@]314 [Nalbuphine, (-)-17-(cyclobutylmethyl)-4,5α-epoxymorphinan-3,6α,14-triol] | 16.7 | 40.0 | 36.7 | 63.3 | 90.0 | 30.8 |  |  |  |  |  |
| CC1=C(CC(=O)O)c2cc(F)ccc2/C1=C\c1ccc([S+](C)[O-])cc1 (centres unmarked) [Sulindac, (Z)-5-fluoro-2-methyl-1-{[4-(methylsulfinyl)phenyl]methylene}-1H-indene-3-acetic acid] |  |  |  |  |  |  | 20.0 | 20.0 | 46.7 | 96.7 | 21.2 |
